According to US4459227A, “Para-hydroxyphenylhydrazines as in situ precursors of iminoquinones and quinones” (Duke University, priority 1981, dated 1984):
Entries after “also recorded” stand apart in the source; their conditions may differ. Like-named read-outs stand apart in the source and are kept apart here. Values belong to the compound of their own block, whether it stands above or below them.

Key:
[1] = Spectral study of rearrangement/reactions with nucleophiles, reducing and oxidizing agents; format: physicochemical
Description: In order to characterize the products of hydrolysis of AA-CHP's, the hydrolysis of Leu-CHP by LAP was studied by absorption spectrophotometry. […] This was also true for the new maximum at 350 nm and for a second new "maximum" which appeared as a low, broad "peak" merging with 350 peak and centered at about 400 nm. However, by 22 minutes (not shown) the absorbance at 300 and 400 nm had diminished in intensity while the 350 maximum continued to increase, albeit at a slower rate. At pH 7.0 (FIG. 8B), the absorbance at 300 nm continued to slowly increase in intensity even up to 90 minutes after dissolving CHP-OEt (0.2 mg) in DMSO (0.02 ml) into 0.05M Phosphate buffer (3 ml). Furthermore, a second maximum at 350 nm developed but it remaind smaller in intensity than the 300 nm peak.
Table 2 summarizes the results of several separate experiments involving the reactions of CHP-OEt, CHA-OEt, pIQ-OEt and pBQ (0.5-1.0 mM) with various nucleophiles (lysine, 3-MPA) reducing agents (NaBH4, 3-MPA) and oxidizing agents (NaIO4, O2) in ten-fold molar excess in Tris-HCl buffer (0.05M, pH 9.0).
In these studies, CHP-OEt, CHA-OEt and pBQ* were all pure compounds, thus, their absorption could be unequivocably assigned, pIQ-OEt was generated by the autoxidation of CHA-OEt in solution and its presence was noted by the appearance of one absorbance maximum at 400 nm and the development of a distinct yellow color to a previously clear solution of CHA-OEt. […] On the other hand, there was a dissimilarity between the spectra of CHP-OEt and CHA-OEt. CHA-OEt was oxidized by O2 or NaIO4 to the pIQ-OEt with a λmax =400 nm whereas NaIO4 had no effect on the rate or nature of spectral change that occurred when . . .

[2] = Stability in aqueous media; format: physicochemical
[3] = tested on: Female DBA/2J mice; assay: In vivo toxicity (LD50, survival, histology); parameters: key to Histologic Findings: Acute Renal Tubular Necrosis / Histologic Findings: Pulmonary Congestion and Edema: 0: absent; +: mild; ++: moderate; +++: severe; conditions: for pulmonary congestion and edema (in words): Phe-CHP 600, Leu-CHP 1000, CHP-OEt 550 mg/kg
Description: (§1) Female DBA/2J mice, 8 weeks old, were injected intraperitoneally with test compound solutions (X, XI, XII, XIII, […]) to give a final concentration of 30 mg/ml.
(§2) In those groups receiving both test compound and cysteine, cysteine (1000 mg/kg) was given i.p. both 1 hour prior to and 2 or 3 hours after i.p. injection of the test compound. In Table 3 are the results of these experiments.

[4] = In vivo toxicity (LD50, survival, histology); parameters: species or system mice; key to Histologic Findings: Acute Renal Tubular Necrosis / Histologic Findings: Pulmonary Congestion and Edema: 0: absent; +: mild; ++: moderate; +++: severe; conditions: mouse, in vivo, ip, mice; for NOAEL: read-out: non-toxic up to (dose)
Description: as §1, §2

[5] = tested on: mice; conditions: for LD100: i.p., mice
Description: Cysteine hydrochloride was neutralized with 1N NaOH and diluted with PBS so that the final concentration was 30 mg/ml. In those groups that received only the test compounds, a single dose (up to 1000 mg/kg) was given i.p. and any toxic deaths were autopsied and hematoxylin and eosin sections obtained.

[6] = target: T1, Leucine Aminopeptidase (LAP), type III-CP (Sus scrofa, UniProt P28839); assay: Leucine aminopeptidase in vitro hydrolysis (TLC); format: biochemical; conditions: 1 mg/ml AA-CHP, pH 9.0, up to 12 hours
T1 sequence (P28839 33-519): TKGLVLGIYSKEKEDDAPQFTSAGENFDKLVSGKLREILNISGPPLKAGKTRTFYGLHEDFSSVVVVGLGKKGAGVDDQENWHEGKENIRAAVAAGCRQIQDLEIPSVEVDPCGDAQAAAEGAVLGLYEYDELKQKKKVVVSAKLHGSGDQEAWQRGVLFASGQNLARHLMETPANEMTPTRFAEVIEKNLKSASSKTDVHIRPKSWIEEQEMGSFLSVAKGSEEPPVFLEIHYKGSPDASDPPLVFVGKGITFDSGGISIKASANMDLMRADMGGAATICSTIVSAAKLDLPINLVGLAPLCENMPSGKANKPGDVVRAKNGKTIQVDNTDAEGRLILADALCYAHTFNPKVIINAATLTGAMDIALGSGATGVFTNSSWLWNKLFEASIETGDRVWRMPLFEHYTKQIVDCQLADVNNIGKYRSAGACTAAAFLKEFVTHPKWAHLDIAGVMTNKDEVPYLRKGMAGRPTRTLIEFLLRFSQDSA
Description: Leucine Aminopeptidase (LAP), type III-CP (Sigma) was stored at 0°-4° C. in 0.75M saturated […], 0.1M Tris and 0.005M MgCl2 (pH 8) and contained 210 U/ml. Prior to the hydrolysis experiment, LAP (50λ) was activated by incubating it in 0.025M MnCl2 (0.2 ml), 0.5M Tris.HCl buffer (pH 9.0, 0.2 ml) and demineralized and ultra-filtered H2 O (0.6 ml) for at least 2 hours at 37° C. To each sample test tube was added AA-CHP (1.5 mg) in 0.02M Tris HCl buffer (pH 9.0, 0.5 ml) so that the final concentration was 1 mg/ml AA-CHP. […] They were dried and sprayed with 0.2% Ninhydrin in EtOH and the color was developed at 85° C. for 5 minutes. The in vitro hydrolysis of Leu-CHP by LAP was also concomitantly studied by scanning spectrophotometry at different times after the start of incubation with the enzyme. A blank reference cell containing only enzyme and buffer was used.

[7] = tested on: Leucine Aminopeptidase (LAP); assay: Hydrolysis of Leu-CHP by LAP studied by absorption spectrophotometry; format: biochemical; conditions: pH 8.5, FIG. 7
Description: Leucine Aminopeptidase (LAP), type III-CP (Sigma) was stored at 0°-4° C. in 0.75M saturated […], 0.1M Tris and 0.005M MgCl2 (pH 8) and contained 210 U/ml. Prior to the hydrolysis experiment, LAP (50λ) was activated by incubating it in 0.025M MnCl2 (0.2 ml), 0.5M Tris.HCl buffer (pH 9.0, 0.2 ml) and demineralized and ultra-filtered H2 O (0.6 ml) for at least 2 hours at 37° C. To each sample test tube was added AA-CHP (1.5 mg) in 0.02M Tris HCl buffer (pH 9.0, 0.5 ml) so that the final concentration was 1 mg/ml AA-CHP. The hydrolysis reaction was allowed to proceed for up to 12 hours and then TLC's were performed by spotting the reaction solution (2-3 μl) on cellulose plates and developing them in Butanol (20 ml)/HAc(4ml)/Pyridine(13.3 ml)/H2 O (16 ml) solvent system. […]
In order to characterize the products of hydrolysis of AA-CHP's, the hydrolysis of Leu-CHP by LAP was studied by absorption spectrophotometry. […] However, by 22 minutes (not shown) the absorbance at 300 and 400 nm had diminished in intensity while the 350 maximum continued to increase, albeit at a slower rate. At pH 7.0 (FIG. 8B), the absorbance at 300 nm continued to slowly increase in intensity even up to 90 minutes after dissolving CHP-OEt (0.2 mg) in DMSO (0.02 ml) into 0.05M Phosphate buffer (3 ml). […]

[8] = tested on: L1210 murine leukemia cells; assay: Inhibition of 3H-thymidine incorporation into DNA; format: cell-based
Description: An L1210 murine leukemia cell line was maintained in mice (female DBA/2J strain from the Jackson Laboratory, Bar Harbor, Maine) by transferring every seven days via intraperitoneal (i.p.) injection of 10^5 cells. […] The frozen cells maintained their viability for over two years. For all in vitro and in vivo experiments only freshly harvested intraperitoneally grown L1210 cells were used.
A DBA/2J mouse bearing L1210 cells for 6 days after i.p. inoculation of 1×10^5 cells was sacrificed by cervical dislocation and, using sterile technique, the abdominal skin was incised and pinned back. Using two 10 ml syringes with 21 gauge needles, one being filled with cold phosphate buffer saline (PBS) (9 ml, pH 7.4) and in 3 ml increments, the solution was injected into the peritoneal cavity through one side and withdrawn with the other syringe through the other side. The light pink cell suspension was then centrifuged at 2000 rpm for 5 minutes and the supernatant was decanted. […] After 0, 2, 4, 5 or 6 hours preincubation, 3H-Thymidine (1 μl; 1 μC) was added and then the incubation was continued for another 1/2 hour. The cells were then killed and their proteins precipitated with 5% TCA. […] To each vial was then added more PPO/POPOP/Toluene cocktail (1.5 ml) and the samples were counted. […]

[9] = compound added: 3-MPA, pH 8-9, ten-fold excess
[10] = compound added: Lysine, pH 8-9, ten-fold excess
[11] = no cysteine, Leu-CHP 1000 mg/kg, Phe-CHP 600 mg/kg i.p.
[12] = Leu-CHP 1000 mg/kg i.p. with cysteine

Final Maximum (nm) [1, 9]: 300 nm | Initial Maximum (nm) ([1]; pH 8-9): 300 nm
Compound: CCOC(=O)CNc1ccc(O)cc1 [CHA-OEt, N(p-hydroxyphenyl)glycine ethyl ester, reference compound]

Compound: CCOC(=O)CN(N)c1ccc(O)cc1 [CHP-OEt, α-N-(carboxymethyl ethyl ester)-p-hydroxyphenylhydrazine]
absorption maximum ([1]; 0.01M Tris buffer pH 9.0, FIG. 8A): 300 nm | second absorption maximum ([1]; 0.05M Phosphate buffer pH 7.0, FIG. 8B): 350 nm | Final Maximum (nm) [1, 9]: 300 nm | Final Maximum (nm) [1, 10]: 350 nm | Final Maximum (nm), appears after NaBH4 has decomposed ([1]; compound added: NaBH4, pH 8-9): 350 nm | Final Maximum (nm) ([1]; compound added: NaBH4, pH 8-9, ten-fold excess): 300 nm | Final Maximum (nm) ([1]; compound added: NaIO4, pH 8-9, ten-fold excess): 350 nm | Final Maximum (nm) ([1]; compound added: none, pH 8-9): 350 nm | Initial Maximum (nm) ([1]; pH 8-9): 300 nm | stability in aqueous media [2]: obvious instability | stability in aqueous media ([2]; listed as IVa): decomposes rapidly | survivors/total ([3]; 400 mg/kg i.p.): 3/3 | deaths/total ([3]; 550 mg/kg i.p. in 7% DMSO): four of four | survivors/total ([3]; 550 mg/kg i.p. in 7% DMSO): 0/4 | time of death after treatment ([3]; 550 mg/kg i.p. in 7% DMSO): ≤ 8 h | Histologic Findings: Acute Renal Tubular Necrosis ([3]; i.p., mice): 0 | Histologic Findings: Pulmonary Congestion and Edema ([3]; i.p., mice): +++ | microscopic examination of the heart ([3]; i.p., mice): no evidence of a toxic insult | pulmonary congestion and edema (in words) ([3]; i.p.): moderate to severe | LD50 [4]: 400 to 550 mg/kg

Compound: N[C@@H](Cc1ccccc1)C(=O)NN(CC(=O)O)c1ccc(O)cc1 [Phe-CHP]
deaths/total ([5]; 600 mg/kg i.p., no cysteine): 6 of 7 | deaths/total ([5]; 600 mg/kg i.p., no cysteine, listed as Phe--CHP): 6/7 | deaths/total ([5]; Phe-CHP 600 mg/kg i.p. with cysteine 1000 mg/kg before and after): none | deaths/total ([5]; Phe-CHP 600 mg/kg i.p. with cysteine 1000 mg/kg before and after, listed as Phe--CHP): 0/3 | LD100 [5]: 600 mg/kg | Time of Death [5, 11]: 36 to 44 h | survivors/total ([3]; 400 mg/kg i.p.): 3/5 | survivors/total ([3]; 600 mg/kg i.p.): 1/7 | Histologic Findings: Acute Renal Tubular Necrosis ([3]; i.p., mice): +++ | acute renal tubular necrosis (in words) ([3]; i.p., mice): severe acute renal tubular coagulative necrosis | relative toxicity ([3]; i.p., mice): most toxic | pulmonary congestion and edema (in words) ([3]; i.p.): minimal | LD50 [4]: 400 mg/kg | cleavage/hydrolysis by LAP [6]: able to cleave

Compound: NCCCC[C@H](N)C(=O)NN(CC(=O)O)c1ccc(O)cc1 [Lys-CHP]
survivors/total ([3]; 600 mg/kg i.p.): 5/5 | survivors/total ([3]; 1000 mg/kg i.p.): 6/6 | LD50 [4]: > 1000 mg/kg | NOAEL [4]: ≥ 1000 mg/kg | cleavage/hydrolysis by LAP [6]: not

Compound: C[C@H](N)C(=O)NN(CC(=O)O)c1ccc(O)cc1 [Ala-CHP]
survivors/total ([3]; 600 mg/kg i.p.): 5/5 | survivors/total ([3]; 1000 mg/kg i.p.): 6/6 | LD50 [4]: > 1000 mg/kg | NOAEL [4]: ≥ 1000 mg/kg | cleavage/hydrolysis by LAP [6]: able to cleave

cleavage/hydrolysis by LAP [6]: not
Compound: CC(C)C[C@H](NC(=O)OC(C)(C)C)C(=O)NN(CC(=O)O)c1ccc(O)cc1 [Boc-Leu-CHP]

Final Maximum (nm) [1, 10]: 300 nm | λmax of pIQ-OEt formed by oxidation of CHA-OEt ([1]; oxidation by O2 or NaIO4): 400 nm
Compound: CCOC(=O)CN=C1C=CC(=O)C=C1 [pIQ-OEt, reference compound]

Compound: N[C@@H](CCC(=O)O)C(=O)NN(CC(=O)O)c1ccc(O)cc1 [Glu-CHP]
survivors/total ([3]; 600 mg/kg i.p.): 5/5 | survivors/total ([3]; 1000 mg/kg i.p.): 6/6 | LD50 [4]: > 1000 mg/kg | NOAEL [4]: ≥ 1000 mg/kg | cleavage/hydrolysis by LAP [6]: not

Compound: CC(C)C[C@H](N)C(=O)NN(CC(=O)O)c1ccc(O)cc1 [Leu-CHP, βN-(L-leucyl)-αN-(carboxymethyl)-p-hydroxy-phenylhydrazine]
new, more intense absorption maximum appearing during hydrolysis [7]: 350 nm | original absorption maximum (disappeared during hydrolysis) [7]: 300 nm | deaths/total ([5]; 1000 mg/kg i.p., no cysteine): Nine of nine | deaths/total ([5]; 1000 mg/kg i.p., no cysteine, listed as Leu--CHP): 9/9 | Time of Death [5, 12]: 72 h | pulmonary congestion or edema, histology of mouse that died on Day 3 [5, 12]: no evidence of pulmonary congestion or edema | deaths/total ([5]; Leu-CHP 1000 mg/kg i.p. with cysteine 1000 mg/kg before and after): one of three | deaths/total ([5]; Leu-CHP 1000 mg/kg i.p. with cysteine 1000 mg/kg before and after, listed as Leu--CHP): 1/3 | LD100 [5]: 1000 mg/kg | Time of Death [5, 11]: ≤ 8 h | Time of Death ([5]; no cysteine, Leu-CHP 1000 mg/kg, Phe-CHP 600 mg/kg i.p., listed as Leu--CHP): < 8 h | survivors/total ([3]; 600 mg/kg i.p.): 5/5 | survivors/total ([3]; 750 mg/kg i.p.): 3/3 | survivors/total ([3]; 1000 mg/kg i.p.): 0/9 | acute renal tubular necrosis (in words) ([3]; i.p., mice): early signs of ATN | microscopic examination of the heart ([3]; i.p., mice): no evidence of a toxic insult | pulmonary congestion and edema (in words) ([3]; i.p.): moderate to severe | LD50 [4]: 750 to 1000 mg/kg | cleavage/hydrolysis by LAP [6]: able to cleave; also recorded: demonstrated | inhibition of 3H-thymidine incorporation into DNA ([8]; no pre-incubation (simultaneous exposure), FIG. 12): no inhibition | inhibition of 3H-thymidine incorporation / DNA synthesis (in words) ([8]; with pre-incubation): degree of inhibition of ^3 H-thymidine incorporation also increased

cleavage/hydrolysis by LAP [6]: able to cleave
Compound: CCOC(=O)CN(NC(=O)[C@@H](N)CC(C)C)c1ccc(O)cc1 [Leu-CHP-OEt, β-N-(L-leucyl)-α-N-(carboxymethyl ethyl ester)-p-hydroxyphenylhydrazine]
